Test results from patent US20220162191A1, “SMALL MOLECULE MODULATORS OF IL-17” (LEO PHARMA A/S, priority 2019, published 2022).

What follows are molecules tested against T1, human IL-17AA (Homo sapiens, UniProt Q16552) (assay: IL-8 release assay in human epithelial keratinocytes adult (HEKa)). Conditions: 3 ng/ml human IL-17AA + 10 ng/ml human TNFalpha, 68-72 h, IL-8 by HTRF, read-out: Rel EC50 L-8 release assay.
T1 construct: host or cells: HEK (human embryonic kidney) cells
T1 sequence (Q16552 24-155) 1: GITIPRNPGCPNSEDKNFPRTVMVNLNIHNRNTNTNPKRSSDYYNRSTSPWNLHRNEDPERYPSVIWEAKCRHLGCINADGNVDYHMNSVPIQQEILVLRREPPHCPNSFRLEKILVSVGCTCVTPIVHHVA
T1 sequence (Q16552 24-155) 2: T1 sequence (Q16552 24-155) 1
Type: cell-based
How it was run: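 Adult human keratinocytes in Epilife with HKGS minus hydrocortisone, treated with compound then stimulated with final 3 ng/ml HEK-derived human IL-17AA plus 10 ng/ml TNF-alpha for 68–72 h at 37 °C; TNF-alpha alone defines 100% inhibition. Secreted IL-8 by HTRF; relative IC50 and Emax from four-parameter fits.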

Row | Compound | EC50 [nM]
1 | Cc1cnn(C)c1-c1ccc(NC(=O)[C@H](Cc2cc(-c3ccc(=O)n(C(C)C)c3)ccc2Cl)NC(=O)c2cnco2)cc1 [Example 321, N-[(1S)-1-[[2-chloro-5-(1-isopropyl-6-oxo-3-pyridyl)phenyl]methyl]-2-[4-(2,4-dimethylpyrazol-3-yl)anilino]-2-oxo-ethyl]oxazole-5-carboxamide] | > 1000
2 | Cc1n[nH]cc1-c1ccc(NC(=O)C(NC(=O)OC2CC2)C(c2ccccc2)c2cccc(-c3ccc(=O)n(C(C)C)c3)c2)cc1 (single isomer, unassigned; diastereomer 1) [Example 242, cyclopropyl N-[1-[[3-(1-isopropyl-6-oxo-3-pyridyl)phenyl]-phenyl-methyl]-2-[4-(3-methyl-1H-pyrazol-4-yl)anilino]-2-oxo-ethyl]carbamate (Diastereomer 1)] | > 1000
3 | Cn1cnnc1-c1ccc(NC(=O)C(Cc2cc(-c3cccc(C4(O)CCC4)c3)ccc2Cl)NC(=O)c2ccnn2C)cc1 (centres unmarked) [Example 144, N-[1-[[2-chloro-5-[3-(1-hydroxycyclobutyl)phenyl]phenyl]methyl]-2-[4-(4-methyl-1,2,4-triazol-3-yl)anilino]-2-oxo-ethyl]-2-methyl-pyrazole-3-carboxamide] | 100 to 1000
4 | Cc1n[nH]c(C)c1-c1ccc(NC(=O)[C@@H](NC(=O)c2ccnn2C)[C@@H]2CCc3ccc(-c4ccc(CN5CCCCC5)cc4)cc32)cc1 [Example 20, N-[(1S)-2-[4-(3,5-dimethyl-1H-pyrazol-4-yl)anilino]-2-oxo-1-[(1R)-6-[4-(1-piperidylmethyl)phenyl]indan-1-yl]ethyl]-2-methyl-pyrazole-3-carboxamide] | 100 to 1000
5 | CC(C)c1cc(-c2ccc(Cl)c(C[C@H](NC(=O)c3ccnn3C)C(=O)Nc3ccc(-c4cncn4C)cc3)c2)ncn1 [Example 205, N-[(1S)-1-[[2-chloro-5-(6-isopropylpyrimidin-4-yl)phenyl]methyl]-2-[4-(3-methylimidazol-4-yl)anilino]-2-oxo-ethyl]-2-methyl-pyrazole-3-carboxamide] | 100 to 1000
6 | CN1CCN(c2cc(-c3ccc(Cl)c(C[C@H](NC(=O)c4ccnn4C)C(=O)Nc4ccc(-c5cncn5C)cc4)c3)ccn2)CC1 [Example 206, N-[(1S)-1-[[2-chloro-5-[2-(4-methylpiperazin-1-yl)-4-pyridyl]phenyl]methyl]-2-[4-(3-methylimidazol-4-yl)anilino]-2-oxo-ethyl]-2-methyl-pyrazole-3-carboxamide] | 100 to 1000
7 | Cn1cnnc1-c1ccc(NC(=O)C(Cc2cc(-c3ccnc(CC(C)(C)O)c3)ccc2Cl)NC(=O)c2ccnn2C)cc1 (centres unmarked) [Example 64, N-[1-[[2-chloro-5-[2-(2-hydroxy-2-methyl-propyl)-4-pyridyl]phenyl]methyl]-2-[4-(4-methyl-1,2,4-triazol-3-yl)anilino]-2-oxo-ethyl]-2-methyl-pyrazole-3-carboxamide] | > 1000
8 | Cn1cncc1-c1ccc(NC(=O)C(Cc2cc(-c3ccnc(OC4CCC4)c3)ccc2Cl)NC(=O)c2ccnn2C)cc1 (centres unmarked) [Example 158, N-[1-[[2-chloro-5-[2-(cyclobutoxy)-4-pyridyl]phenyl]methyl]-2-[4-(3-methylimidazol-4-yl)anilino]-2-oxo-ethyl]-2-methyl-pyrazole-3-carboxamide] | 100 to 1000
9 | Cn1cncc1-c1ccc(NC(=O)C(Cc2cc(-c3ccnc(N4CC[C@@H](O)C4)c3)ccc2Cl)NC(=O)c2ccnn2C)cc1 (stereo partly drawn) [Example 192, N-[1-[[2-chloro-5-[2-[(3R)-3-hydroxypyrrolidin-1-yl]-4-pyridyl]phenyl]methyl]-2-[4-(3-methylimidazol-4-yl)anilino]-2-oxo-ethyl]-2-methyl-pyrazole-3-carboxamide] | 100 to 1000
10 | CC(C)n1cc(-c2ccc(Cl)c(CC(NC(=O)OCC3(C)CC3)C(=O)Nc3ccc(-c4nncn4C)cc3)c2)ccc1=O (centres unmarked) [Example 106, (1-methylcyclopropyl)methyl N-[1-[[2-chloro-5-(1-isopropyl-6-oxo-3-pyridyl)phenyl]methyl]-2-[4-(4-methyl-1,2,4-triazol-3-yl)anilino]-2-oxo-ethyl]carbamate] | > 1000
11 | CC(C)n1cc(-c2cccc(C(c3ccccc3)C(NC(=O)OC3CC3)C(=O)Nc3ccc(-c4cncn4C)cc3)c2)ccc1=O (single isomer, unassigned; diastereomer 2) [Example 239, cyclopropyl N-[1-[[3-(1-isopropyl-6-oxo-3-pyridyl)phenyl]-phenyl-methyl]-2-[4-(3-methylimidazol-4-yl)anilino]-2-oxo-ethyl]carbamate (Diastereomer 2)] | 100 to 1000
12 | Cc1nccn1-c1ccc(NC(=O)C(Cc2cc(-c3ccc(=O)n(C(C)C)c3)ccc2Cl)NC(=O)OC(C)(C)C)cc1 (centres unmarked) [Example 67, tert-butyl N-[1-[[2-chloro-5-(1-isopropyl-6-oxo-3-pyridyl)phenyl]methyl]-2-[4-(2-methylimidazol-1-yl)anilino]-2-oxo-ethyl]carbamate] | 100 to 1000
13 | Cn1cncc1-c1ccc(NC(=O)C(Cc2cc(-c3ccnc(N4CC(N)C4)c3)ccc2Cl)NC(=O)c2ccnn2C)cc1 (centres unmarked) [Example 195, N-[1-[[5-[2-(3-aminoazetidin-1-yl)-4-pyridyl]-2-chloro-phenyl]methyl]-2-[4-(3-methylimidazol-4-yl)anilino]-2-oxo-ethyl]-2-methyl-pyrazole-3-carboxamide] | 100 to 1000
14 | Cc1nocc1C(=O)N[C@@H](Cc1cc(-c2ccnc(C(C)(C)C)c2)ccc1Cl)C(=O)Nc1ccc(-c2nncn2C)cc1 [Example 128, N-[(1S)-1-[[5-(2-tert-butyl-4-pyridyl)-2-chloro-phenyl]methyl]-2-[4-(4-methyl-1,2,4-triazol-3-yl)anilino]-2-oxo-ethyl]-3-methyl-isoxazole-4-carboxamide] | 100 to 1000

Results, then the molecule that gave them:

Row | EC50 [nM] | Compound
15 | < 100 | Cc1n[nH]c(C)c1-c1ccc(NC(=O)[C@H](Cc2cc(-c3ccnc(N4C[C@H]5C[C@@H]4CO5)c3)ccc2Cl)NC(=O)C2(F)CC2)cc1 [Example 222, N-[(1S)-1-[[2-chloro-5-[2-[(1R,4R)-2-oxa-5-azabicyclo[2.2.1]heptan-5-yl]-4-pyridyl]phenyl]methyl]-2-[4-(3,5-dimethyl-1H-pyrazol-4-yl)anilino]-2-oxo-ethyl]-1-fluoro-cyclopropanecarboxamide]
16 | 100 to 1000 | Cc1nocc1C(=O)NC(Cc1cc(-c2cccc(C(=O)N3CC(F)C3)c2)ccc1Cl)C(=O)Nc1ccc(-c2nncn2C)cc1 (centres unmarked) [Example 120, N-[1-[[2-chloro-5-[3-(3-fluoroazetidine-1-carbonyl)phenyl]phenyl]methyl]-2-[4-(4-methyl-1,2,4-triazol-3-yl)anilino]-2-oxo-ethyl]-3-methyl-isoxazole-4-carboxamide]
17 | 100 to 1000 | Cc1nocc1C(=O)N[C@@H](Cc1cc(-c2ccnc(C(=O)C(C)(C)C)c2)ccc1Cl)C(=O)Nc1ccc(-c2nncn2C)cc1 [Example 84, N-[(1S)-1-[[2-chloro-5-[2-(2,2-dimethylpropanoyl)-4-pyridyl]phenyl]methyl]-2-[4-(4-methyl-1,2,4-triazol-3-yl)anilino]-2-oxo-ethyl]-3-methyl-isoxazole-4-carboxamide]
18 | 100 to 1000 | Cn1cnnc1-c1ccc(NC(=O)C(Cc2cc(-c3ccc(O)c(C4=NCCCO4)c3)ccc2Cl)NC(=O)c2ccnn2C)cc1 (centres unmarked) [Example 178, N-[1-[[2-chloro-5-[3-(5,6-dihydro-4H-1,3-oxazin-2-yl)-4-hydroxy-phenyl]phenyl]methyl]-2-[4-(4-methyl-1,2,4-triazol-3-yl)anilino]-2-oxo-ethyl]-2-methyl-pyrazole-3-carboxamide]
19 | 100 to 1000 | Cc1cnn(C)c1-c1ccc(NC(=O)[C@@H](NC(=O)C2(F)CC2)[C@@H]2CCc3ccc(-c4cc(N5C[C@@H]6C[C@H]5CO6)ncn4)cc32)cc1 [Example 365, N-[(1S)-2-[4-(2,4-dimethylpyrazol-3-yl)anilino]-1-[(1R)-6-[6-[(1S,4S)-2-oxa-5-azabicyclo[2.2.1]heptan-5-yl]pyrimidin-4-yl]indan-1-yl]-2-oxo-ethyl]-1-fluoro-cyclopropanecarboxamide]
20 | 100 to 1000 | Cn1cncc1-c1ccc(NC(=O)C(Cc2cc(-c3ccnc(N4CCCCC4)c3)ccc2Cl)NC(=O)c2ccnn2C)cc1 (centres unmarked) [Example 160, N-[1-[[2-chloro-5-[2-(1-piperidyl)-4-pyridyl]phenyl]methyl]-2-[4-(3-methylimidazol-4-yl)anilino]-2-oxo-ethyl]-2-methyl-pyrazole-3-carboxamide]
21 | < 100 | Cc1cnn(C)c1-c1ccc(NC(=O)[C@@H](NC(=O)C2(F)CC2)[C@@H]2CCc3ccc(-c4ccnc(N5C[C@@H]6C[C@H]5CO6)c4)cc32)cc1O [Example 369, N-[(1S)-2-[4-(2,4-dimethylpyrazol-3-yl)-3-hydroxy-anilino]-1-[(1R)-6-[2-[(1S,4S)-2-oxa-5-azabicyclo[2.2.1]heptan-5-yl]-4-pyridyl]indan-1-yl]-2-oxo-ethyl]-1-fluoro-cyclopropanecarboxamide]
22 | < 100 | Cc1ncn(C)c1-c1ccc(NC(=O)[C@H](Cc2cc(-c3cnn(C(C)(C)C)c3)ccc2Cl)NC(=O)c2ccnn2C)cc1 [Example 182, N-[(1S)-1-[[5-(1-tert-butylpyrazol-4-yl)-2-chloro-phenyl]methyl]-2-[4-(3,5-dimethylimidazol-4-yl)anilino]-2-oxo-ethyl]-2-methyl-pyrazole-3-carboxamide]
23 | < 100 | Cc1n[nH]c(C)c1-c1ccc(NC(=O)[C@@H](NC(=O)C2(F)CC2)[C@@H]2CCc3ccc(-c4ccnc(N5C[C@@H]6C[C@H]5CO6)n4)cc32)cc1 [Example 367, N-[(1S)-2-[4-(3,5-dimethyl-1H-pyrazol-4-yl)anilino]-1-[(1R)-6-[2-[(1S,4S)-2-oxa-5-azabicyclo[2.2.1]heptan-5-yl]pyrimidin-4-yl]indan-1-yl]-2-oxo-ethyl]-1-fluoro-cyclopropanecarboxamide]
